Measured values from patent US11286273B2, “Rhamnolipid compounds and use thereof” (KOREA INSTITUTE OF OCEAN SCIENCE & TECHNOLOGY, priority 2019, dated 2022).

How the values were obtained:
Assay type in all cases: cell-based
HCT-15 = test: SRB growth inhibition, HCT-15 (colon cancer); settings: Homo sapiens, HCT-15, 48 hours
Experimental: (§1) Human cancer cell lines HCT-15 (colon cancer), NUGC-3 (gastric cancer), NCI-H23 (liver cancer), ACHN (kidney cancer), PC-3 (prostate cancer) and MDA-MB-231 (breast cancer) were purchased from American Type Culture Collection (Manassas, Va.).
(§2) Cancer cell lines were cultured in RPMI 1640 supplemented with 10% fetal bovine serum (FBS) in a 5% CO2 humid atmosphere at 37° C. The evaluation of growth inhibitory ability against human cancer cell lines was performed via the Sulforhodamine B (SRB) method. The cells were dispensed into a 96-well plate at a density of 8,000 cells/well, and the next day, cells were treated with compounds 1 to 3 (0.1% DMSO as vehicle control), and treated with a positive control (adriamycin). After incubation for 48 hours, the culture fluid was fixed with 50% trichloroacetic acid ([…]) and stained with 0.4% sulforhodamine B contained in 1% acetic acid. The unbound dye was washed with 1% acetic acid, and the dye bound to the protein was extracted with 10 mM Tris base (pH 10.5) to determine the optical density. The absorbance at 540 nm was determined using a VersaMax microplate reader (Molecular Devices, LLC, Sunnyvale, Calif., USA). The GI50 values were calculated using GraphPad Prism 4.0 software (GraphPad Software, Inc., San Diego, Calif., USA) and shown in Table 3 below.

NUGC-3 = test: SRB growth inhibition, NUGC-3 (gastric cancer); settings: Homo sapiens, NUGC-3, 48 hours
Experimental: as §1, §2

NCI-H23 = test: SRB growth inhibition, NCI-H23 (liver cancer); settings: Homo sapiens, NCI-H23, 48 hours
Experimental: as §1, §2

ACHN = test: SRB growth inhibition, ACHN (kidney cancer); settings: Homo sapiens, 48 hours
Experimental: as §1, §2

PC-3 = test: SRB growth inhibition, PC-3 (prostate cancer); settings: Homo sapiens, PC-3, 48 hours
Experimental: as §1, §2

MDA-MB-231 = test: SRB growth inhibition, MDA-MB-231 (breast cancer); settings: Homo sapiens, MDA-MB-231, 48 hours
Experimental: as §1, §2

Human cancer cell lines = test: SRB growth inhibition, panel of six human cancer cell lines (summary); settings: for GI50: Homo sapiens, range over the six cancer cell lines of Table 3
Experimental: as §1, §2

Row | GI50 (HCT-15) [µM] | GI50 (NUGC-3) [µM] | GI50 (NCI-H23) [µM] | GI50 (ACHN) [µM] | GI50 (PC-3) [µM] | GI50 (MDA-MB-231) [µM] | GI50 (Human cancer cell lines) [µM] | Compound | activity against cancer cell lines (Human cancer cell lines; summary in words of Table 3)
1 | 41.5 | 30.6 | 27.5 | 34.2 | 37.8 | 30.6 | 13.7 to 41.5 | CC1OC(O[C@H](CCCCCCCCCCCCC[C@@H](C)O)CC(=O)O)C(O)C(O)C1O (stereo in doubt) [Compound 1, 17-hydroxy-3-(3,4,5-trihydroxy-6-methyltetrahydro-2H-pyran-2-yloxy)octadecanoic acid] | 
2 | 16.7 | 19.3 | 13.7 | 14.1 | 18.2 | 40.4 | 13.7 to 41.5 | CC(=O)CCCCCCCCCCCCC[C@H](CC(=O)O)OC1OC(C)C(O)C(O)C1O (stereo in doubt) [Compound 2, 17-oxo-3-(3,4,5-trihydroxy-6-methyltetrahydro-2H-pyran-2-yloxy)octadecanoic acid] | particularly excellent activity
3 | 1.4 | 1.5 | 1.4 | 1.3 | 1.4 | 1.5 |  | COc1cccc2c1C(=O)c1c(O)c3c(c(O)c1C2=O)C[C@@](O)(C(=O)CO)C[C@@H]3O[C@H]1C[C@H](N)[C@H](O)[C@H](C)O1 [ADR, adriamycin, reference compound] | 
4 | 26.9 | 32 | 36.9 | 29.1 | 33.3 | 25.5 | 13.7 to 41.5 | CC1OC(OC2C(O[C@H](CCCCCCCCCCCCC[C@@H](C)O)CC(=O)O)OC(C)C(O)C2O)C(O)C(O)C1O (stereo partly shown) [Compound 3, 3-(4,5-dihydroxy-6-methyl-3-(3,4,5-trihydroxy-6-methyltetrahydro-2H-pyran-)2-yloxy)tetrahydro-(2H-pyran-2-yloxy)-17-hydroxyoctadecanoic acid] | 
